Series [1] has as its system (H^+ -K^+) ATPase. Nature of the series: Transdermal application to rabbit ears, (H+-K+) ATPase activity in fundic mucosa. In kind it is in vivo. To be noted: rabbits, transdermal 100 mg/kg divided to both ears, DMSO after 1, 3, 5, 7, 24 and 25 hrs, evaluated 30 hrs after dose. The method, then: (§1) The animals were allowed to rest for varying amounts of time and then the inhibition of (H^+ -K^+) ATPase, the enzyme responsible for gastric acid secretion, was measured.
(§2) For each of the following examples the drug dilutions were prepared in DMSO to a final concentration of 150 mg/ml. The drug was made fresh prior to each application.
The inhibition of (H^+ -K^+) ATPase activity was determined as described by Im, W. B.; Blalkeman, D. P., "Inhibitiion of Gastric pH^+ -K^+) ATPase by Unsaturated Long Chain Fatty Acids" Biochem. et Biophy. Acta 692:355-60 (1982). For the rat models, fundic gastric mucosal microsomes were prepared and (H^+ -K^+) ATPase activity in the microsomes was estimated by measuring K^+ -dependent ATP-hydrolysis.
For the rabbit models, mucosa from the fundic region was removed by blunt dissection and minced with scissors. 2.5 g of the minced tissue was placed in 25 ml of buffer containing 250 mM sucrose, 2 mM MgCl2, 1 mM EGTA, and 2 mM Hepes/Tris, pH 7.4. The tissues were then prepared as described for the rat gastric mucosa.
Male, New Zealand White rabbits were fasted overnight without water in their cages prior to treatment. The same compound as used in Example 1 was applied at 0 or 100 mg/kg in divided doses (1/2 to each ear) to naive rabbit ears. […] The rabbits were evaluated 30 hrs after the initial dose for determination of (H^+ -K^+) ATPase activity.

The nature of series [2]: Transdermal application to backs of rats, (H+-K+) ATPase activity in fundic gastric mucosal microsomes (K+-dependent ATP-hydrolysis). The class given is in vivo, rat. The note with it: rat, in vivo, topical or ocular, transdermal, lowest dose 25 mg/kg, read-out: fraction of the lowest dose absorbed. As for the experimental part:
as §1, §2
(§3) The inhibition of (H^+ -K^+) ATPase activity was determined as described by Im, W. B.; Blalkeman, D. P., "Inhibitiion of Gastric pH^+ -K^+) ATPase by Unsaturated Long Chain Fatty Acids" Biochem. et Biophy. […] For the rat models, fundic gastric mucosal microsomes were prepared and (H^+ -K^+) ATPase activity in the microsomes was estimated by measuring K^+ -dependent ATP-hydrolysis.
(§4) Male, Upjohn Sprague Dawley rats were anesthetized with sodium pentobarbital and their dorsal hair removed with the depilatory NAIR. Care was taken to prevent abrasions which might result from hair removal. The animals were returned to their cages and allowed to recover for twenty-four hours. The rats were then fasted overnight in metal restraining tubes without water prior to treatment. 2-(4-ethylthio-3-methylpyridin-2-yl methyl)sulfinyl-benzimidazole at 0 or 100 mg/kg was applied to the backs of the rats and spread with an Eppendorf pipette tip. The same volume of DMSO alone was applied after 2 hrs to all animals. The rats were evaluated 5 or 30 hours after the initial dose for determination of (H^+ -K^+) ATPase activity.
as §4, with “Omeprazole” for “2-(4-ethylthio-3-methylpyridin-2-yl methyl)sulfinyl-benzimidazole”
(§5) Additional volumes (100 μl) of DMSO were spread over the treatment area one time (after two hours) or four times (after one, two, three and four hours). The animals were evaluated 5 hours after the initial dose for determination of (H^+ -K^+) ATPase activity.
(§6) Additional volumes (100 μl) of DMSO were spread over the treatment area after 2, 5, and 7 hours. The animals were evaluated 24 hours after the initial dose for determination of (H^+ -K^+) ATPase activity.

In series [3] the test system is (H^+ -K^+) ATPase. The description is as above. The class given is in vivo, rat. As for the experimental part:
as §1, §2, §3, §4
as §4, with “Omeprazole” for “2-(4-ethylthio-3-methylpyridin-2-yl methyl)sulfinyl-benzimidazole”
as §5, §6

A short description of series [4]: Signs of irritation after transdermal application. The note with it: rabbit ears, transdermal 100 mg/kg in DMSO. The class given is in vivo. As for the experimental part:
Male, New Zealand White rabbits were fasted overnight without water in their cages prior to treatment. The same compound as used in Example 1 was applied at 0 or 100 mg/kg in divided doses (1/2 to each ear) to naive rabbit ears. The rabbits received an additional application of DMSO to the treatment area after 1, 3, 5, 7, 24 and 25 hrs. The rabbits were evaluated 30 hrs after the initial dose for determination of (H^+ -K^+) ATPase activity.

For the molecule `CCSc1ccnc(C[S+]([O-])c2nc3ccccc3[nH]2)c1C` (centres unmarked) [2-(4-ethylthio-3-methylpyridin-2-ylmethyl)sulfinyl-benzimidazole], the “reduction of (H^+ -K^+) ATPase activity from control” value in the series on (H^+ -K^+) ATPase [1] is listed as 87%; in the series with (H^+ -K^+) ATPase [3] (transdermal 100 mg/kg in DMSO, DMSO alone after 2 hrs, evaluated 5 or 30 hours after dose (activity did not change with time)), 60-65%; in the series with (H^+ -K^+) ATPase [3] (transdermal 100 mg/kg, one DMSO wipe after two hours, evaluated 5 hours after dose (Example 3)) it was 65%. For the same molecule, the Fa in series [2] was no less than 4%. Moreover, in the series on (H^+ -K^+) ATPase [3] (transdermal 100 mg/kg, four wipes of DMSO (1, 2, 3, 4 hours) versus one wipe, 5 hours), the “additional reduction of (H^+ -K^+) ATPase activity by additional applications of DMSO” value is on record as 16%. For the same molecule, the “reduction of (H^+ -K^+) ATPase activity” value worked out at 81% in the series on (H^+ -K^+) ATPase [3] (transdermal 100 mg/kg, four wipes of DMSO (1, 2, 3, 4 hours), 5 hours) and 72% in the series on (H^+ -K^+) ATPase [3] (transdermal 200 mg/kg, one wipe of DMSO after two hours, 5 hours). Moreover, the “reduction in (H^+ -K^+) ATPase from the control” value in the series with (H^+ -K^+) ATPase [3] (transdermal 25, 50 or 100 mg/kg (maximum even at the lower dose), DMSO after 2, 5 and 7 hours, evaluated 24 hours after dose) is roughly 50%. Moreover, the signs of irritation result in series [4] is recorded as “no signs of irritation were observed”.
Turning to `COc1ccc2[nH]c([S+]([O-])Cc3ncc(C)c(OC)c3C)nc2c1` (centres unmarked) [omeprazole, reference compound], the “reduction of (H^+ -K^+) ATPase activity as compared to the control” value is on record as 35% in the series on (H^+ -K^+) ATPase [3] (transdermal 100 mg/kg in DMSO, DMSO alone after 2 hrs, after 5 hours) and 27% in the series on (H^+ -K^+) ATPase [3] (transdermal 100 mg/kg in DMSO, DMSO alone after 2 hrs, after 30 hours).

The values are drawn from patent US5124158A, “Transdermal antisecretory agents for gastrointestinal disease” (The Upjohn Company, priority 1990, dated 1992).
